Results as given in ChEMBL document CHEMBL5465560, “Selectivity Literature for EUbOPEN Chemogenomic Library” (2024).

Experiments:
[1] = molecular target: T1, N-lysine methyltransferase KMT5A (Homo sapiens) (UniProt Q9NQR1); conditions: at 1 µM
T1 sequence (whole entry): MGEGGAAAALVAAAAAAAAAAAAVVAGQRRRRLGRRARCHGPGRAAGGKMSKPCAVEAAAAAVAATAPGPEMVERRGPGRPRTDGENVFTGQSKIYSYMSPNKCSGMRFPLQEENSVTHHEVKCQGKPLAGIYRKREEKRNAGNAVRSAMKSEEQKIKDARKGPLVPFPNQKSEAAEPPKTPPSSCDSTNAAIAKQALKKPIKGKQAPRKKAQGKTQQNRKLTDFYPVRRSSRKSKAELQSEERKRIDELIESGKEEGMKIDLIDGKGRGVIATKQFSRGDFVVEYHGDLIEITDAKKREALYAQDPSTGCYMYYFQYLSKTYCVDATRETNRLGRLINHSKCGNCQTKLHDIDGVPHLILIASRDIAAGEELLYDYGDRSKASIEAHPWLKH

[2] = molecular target: Calcium/calmodulin-dependent protein kinase type 1B (Homo sapiens) (UniProt Q6P2M8); experiment: Selectivity interaction (KinomeScan (DiscoverX)) EUB0001049a PNCK; conditions: at 1 µM
[3] = molecular target: T2, Mitogen-activated protein kinase kinase kinase kinase 2 (Homo sapiens) (UniProt Q12851); experiment: Selectivity interaction (KinomeScan (DiscoverX)) EUB0001619a MAP4K2; conditions: at 1 µM
T2 sequence (whole entry): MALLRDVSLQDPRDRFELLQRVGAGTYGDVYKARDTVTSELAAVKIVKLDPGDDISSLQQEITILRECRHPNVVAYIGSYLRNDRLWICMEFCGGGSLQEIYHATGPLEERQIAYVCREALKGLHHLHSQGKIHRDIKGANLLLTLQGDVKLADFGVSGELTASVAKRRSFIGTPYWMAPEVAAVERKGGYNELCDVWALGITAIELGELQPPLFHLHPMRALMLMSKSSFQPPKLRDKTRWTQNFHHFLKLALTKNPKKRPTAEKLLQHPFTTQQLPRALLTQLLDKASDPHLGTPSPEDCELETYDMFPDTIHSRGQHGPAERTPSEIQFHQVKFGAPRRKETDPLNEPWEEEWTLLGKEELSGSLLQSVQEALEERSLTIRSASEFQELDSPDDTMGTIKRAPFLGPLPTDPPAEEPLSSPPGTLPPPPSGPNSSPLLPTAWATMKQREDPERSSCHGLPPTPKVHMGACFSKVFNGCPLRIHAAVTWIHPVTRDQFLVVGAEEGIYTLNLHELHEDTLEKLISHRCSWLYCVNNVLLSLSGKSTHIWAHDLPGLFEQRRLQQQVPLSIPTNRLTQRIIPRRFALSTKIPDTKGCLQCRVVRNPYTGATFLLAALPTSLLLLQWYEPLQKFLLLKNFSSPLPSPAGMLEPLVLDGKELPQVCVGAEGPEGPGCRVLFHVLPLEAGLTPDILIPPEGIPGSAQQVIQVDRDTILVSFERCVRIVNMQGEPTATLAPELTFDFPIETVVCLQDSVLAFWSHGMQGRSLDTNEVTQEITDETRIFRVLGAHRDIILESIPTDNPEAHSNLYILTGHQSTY

[4] = molecular target: T3, Serine/threonine-protein kinase 3 (Homo sapiens) (UniProt Q13188); experiment: Selectivity interaction (ActivX KiNativ screen (ex vivo kinase selectivity in human PBMCs)) EUB0001619a STK3; type: cell-based; conditions: PBMC, at 1 µM
T3 sequence (whole entry): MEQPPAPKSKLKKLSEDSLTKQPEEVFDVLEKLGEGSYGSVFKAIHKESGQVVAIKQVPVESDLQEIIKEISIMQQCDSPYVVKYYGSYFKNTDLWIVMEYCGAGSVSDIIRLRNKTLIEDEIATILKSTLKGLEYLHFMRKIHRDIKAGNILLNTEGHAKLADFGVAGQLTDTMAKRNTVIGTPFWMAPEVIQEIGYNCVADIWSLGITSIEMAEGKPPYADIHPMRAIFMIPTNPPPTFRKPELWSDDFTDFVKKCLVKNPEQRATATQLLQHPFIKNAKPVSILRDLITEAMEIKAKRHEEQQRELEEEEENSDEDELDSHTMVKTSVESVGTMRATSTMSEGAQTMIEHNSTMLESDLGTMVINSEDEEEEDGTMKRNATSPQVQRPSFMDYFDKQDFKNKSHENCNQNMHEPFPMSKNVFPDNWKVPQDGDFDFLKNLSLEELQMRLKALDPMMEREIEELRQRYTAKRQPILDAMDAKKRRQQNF

[5] = molecular target: Mitogen-activated protein kinase 9 (Homo sapiens, UniProt P45984); experiment: Selectivity interaction (Kinase panel (DSF assay)) EUB0001558a MAPK9
[6] = molecular target: Receptor tyrosine-protein kinase erbB-4 (Homo sapiens, UniProt Q15303); experiment: Selectivity interaction (KinomeScan (DiscoverX)) EUB0000618a ERBB4; conditions: at 10 µM
[7] = molecular target: MAP/microtubule affinity-regulating kinase 3 (Homo sapiens) (UniProt P27448); experiment: Selectivity interaction (ActivX KiNativ screen (kinase selectivity in THP-1 cell lysates)) EUB0000639a MARK3; type: subcellular; conditions: lysate, at 1 µM
MAP/microtubule affinity-regulating kinase 3 (Homo sapiens), sequence (P27448 whole entry, looked up): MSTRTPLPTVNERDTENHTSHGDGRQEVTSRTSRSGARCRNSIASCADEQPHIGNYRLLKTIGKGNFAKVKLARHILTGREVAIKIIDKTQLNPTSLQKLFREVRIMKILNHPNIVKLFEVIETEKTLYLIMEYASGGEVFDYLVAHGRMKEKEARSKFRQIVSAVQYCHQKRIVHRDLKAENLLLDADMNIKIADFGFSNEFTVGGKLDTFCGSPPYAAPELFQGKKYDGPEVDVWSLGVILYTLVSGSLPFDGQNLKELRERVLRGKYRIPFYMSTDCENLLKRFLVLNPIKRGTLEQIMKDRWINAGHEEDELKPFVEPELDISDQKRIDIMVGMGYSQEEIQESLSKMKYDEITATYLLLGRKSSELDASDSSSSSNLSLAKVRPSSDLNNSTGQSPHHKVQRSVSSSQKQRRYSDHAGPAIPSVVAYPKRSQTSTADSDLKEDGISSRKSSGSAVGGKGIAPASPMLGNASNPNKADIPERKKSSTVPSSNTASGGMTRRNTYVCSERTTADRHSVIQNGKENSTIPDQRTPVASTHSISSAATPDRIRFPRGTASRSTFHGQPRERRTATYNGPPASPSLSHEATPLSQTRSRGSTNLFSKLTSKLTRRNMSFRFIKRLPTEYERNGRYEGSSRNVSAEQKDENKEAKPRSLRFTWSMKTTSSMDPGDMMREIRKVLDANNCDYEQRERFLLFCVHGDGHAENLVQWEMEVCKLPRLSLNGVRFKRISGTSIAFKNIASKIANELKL

Mitogen-activated protein kinase 9, sequence (P45984 whole entry, looked up): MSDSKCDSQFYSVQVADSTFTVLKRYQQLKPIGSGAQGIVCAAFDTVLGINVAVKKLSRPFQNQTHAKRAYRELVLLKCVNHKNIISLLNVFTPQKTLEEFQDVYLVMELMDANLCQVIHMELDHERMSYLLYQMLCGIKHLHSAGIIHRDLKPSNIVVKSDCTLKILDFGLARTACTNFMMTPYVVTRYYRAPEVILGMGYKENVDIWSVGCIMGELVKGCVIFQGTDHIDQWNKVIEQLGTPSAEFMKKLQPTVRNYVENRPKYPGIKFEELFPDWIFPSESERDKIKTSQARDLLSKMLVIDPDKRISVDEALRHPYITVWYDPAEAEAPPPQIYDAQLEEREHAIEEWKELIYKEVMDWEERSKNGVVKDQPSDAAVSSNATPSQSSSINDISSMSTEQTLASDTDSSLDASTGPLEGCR
Receptor tyrosine-protein kinase erbB-4, sequence (Q15303 whole entry): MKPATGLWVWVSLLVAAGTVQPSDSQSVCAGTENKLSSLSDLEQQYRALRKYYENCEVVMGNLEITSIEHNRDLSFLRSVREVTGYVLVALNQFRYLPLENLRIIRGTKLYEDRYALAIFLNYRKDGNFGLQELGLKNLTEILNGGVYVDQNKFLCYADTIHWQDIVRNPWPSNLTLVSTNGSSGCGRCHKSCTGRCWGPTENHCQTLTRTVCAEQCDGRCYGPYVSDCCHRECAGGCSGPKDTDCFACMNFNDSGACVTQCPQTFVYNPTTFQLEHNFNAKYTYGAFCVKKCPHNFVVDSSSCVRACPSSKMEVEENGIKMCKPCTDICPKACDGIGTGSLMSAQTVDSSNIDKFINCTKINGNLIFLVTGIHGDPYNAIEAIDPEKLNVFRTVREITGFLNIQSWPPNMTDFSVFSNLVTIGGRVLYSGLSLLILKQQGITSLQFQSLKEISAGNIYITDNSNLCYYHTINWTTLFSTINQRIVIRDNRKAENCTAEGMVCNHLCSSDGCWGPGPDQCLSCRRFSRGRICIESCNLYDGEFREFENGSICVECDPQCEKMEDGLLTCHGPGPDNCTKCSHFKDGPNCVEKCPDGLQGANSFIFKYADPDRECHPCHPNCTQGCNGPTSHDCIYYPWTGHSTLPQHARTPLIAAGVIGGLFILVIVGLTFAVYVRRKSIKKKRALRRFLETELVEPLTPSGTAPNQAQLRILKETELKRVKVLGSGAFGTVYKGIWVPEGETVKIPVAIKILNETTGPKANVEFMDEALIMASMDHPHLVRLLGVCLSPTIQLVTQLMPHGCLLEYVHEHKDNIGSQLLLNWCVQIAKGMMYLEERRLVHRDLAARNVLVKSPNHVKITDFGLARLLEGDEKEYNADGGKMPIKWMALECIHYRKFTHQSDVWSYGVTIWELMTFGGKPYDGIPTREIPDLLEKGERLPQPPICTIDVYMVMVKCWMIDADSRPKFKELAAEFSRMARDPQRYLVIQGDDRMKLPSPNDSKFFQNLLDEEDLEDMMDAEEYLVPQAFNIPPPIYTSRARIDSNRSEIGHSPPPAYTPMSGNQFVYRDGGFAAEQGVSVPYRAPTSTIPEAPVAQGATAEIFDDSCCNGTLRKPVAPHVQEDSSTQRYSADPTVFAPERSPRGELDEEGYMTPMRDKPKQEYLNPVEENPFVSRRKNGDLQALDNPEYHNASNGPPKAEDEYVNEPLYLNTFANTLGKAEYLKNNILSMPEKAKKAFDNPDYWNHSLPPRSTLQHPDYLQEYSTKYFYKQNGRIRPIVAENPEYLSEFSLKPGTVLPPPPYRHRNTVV
Calcium/calmodulin-dependent protein kinase type 1B (Homo sapiens), sequence (Q6P2M8 whole entry): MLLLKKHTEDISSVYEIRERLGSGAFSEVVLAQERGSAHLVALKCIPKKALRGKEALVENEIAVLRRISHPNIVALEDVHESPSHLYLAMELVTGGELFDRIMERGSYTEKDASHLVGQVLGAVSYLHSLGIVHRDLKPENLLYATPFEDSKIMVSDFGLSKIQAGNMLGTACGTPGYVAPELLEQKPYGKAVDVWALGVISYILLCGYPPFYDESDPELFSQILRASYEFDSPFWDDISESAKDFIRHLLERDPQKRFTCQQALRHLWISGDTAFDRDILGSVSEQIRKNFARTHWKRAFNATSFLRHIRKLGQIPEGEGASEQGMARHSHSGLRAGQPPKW

Work on `CNCCN1CCC(c2cc(CN(C)C(=O)c3cccc(Oc4ccccc4)c3)ccn2)CC1` yielded a % activity [1] of over 90%.

In the case of `COc1cc(Nc2nc(C)cc(-c3cnn4nc(OC)ccc34)n2)cc(C(F)(F)F)c1`, the % of control [2] is reported as 100%.

`N#Cc1cccc(-c2c[nH]c3ncnc(N4CCOCC4)c23)c1` gave a % of control [3] of 3.4% and a % of inhibition [4] of 69%.

`CC(C)(O)[C@H](F)CN1Cc2cc(NC(=O)c3cnn4cccnc34)c(N3CCOCC3)cc2C1=O` was tested, and the dTM [5] was 1.6 K.

`O[C@H]1CC[C@H](Nc2ncc3nc(Nc4c(F)cc(F)cc4F)n([C@H]4CCOC4)c3n2)CC1` showed a % of control [6] of 56%.

In the case of `CC[C@@H]1[C@H](F)C(=O)N[C@@H]1COc1nccc2cc(C(N)=O)c(OC)cc12` [ZIMLOVISERTIB], the % of inhibition [7] is reported as 21.6%.
